Among the test systems are TK-10; T47D; NCI/ADR-RES; SR; RXF 393; NCI-H522; HCT-116; RPMI-8226; 786-0; OVCAR-8; K562; Malme-3M; HCT-15; MDA-MB-435; MDA-N; SW-620; SN12C; SF-295; OVCAR-3; HL-60.
What all share (assay): NCI-60 cell line screen, 48 h

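Method: 48-hour compound exposure of cells in 96-well plates, five concentrations, linear interpolation of endpoints. Here, GI50 denotes the concentration required for 50% inhibition of growth.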 The source made the active and inactive calls. Rule as the data show it: active = GI50 up to about 1.1 µM and inactive = higher.

`O=S(=O)(Cc1cnc(O)nc1O)Cc1cnc(O)nc1O`: the GI50 in the test with TK-10 is > 100 µM (inactive); in the test with T47D, > 100 µM (inactive); in the test on NCI/ADR-RES, > 100 µM (inactive); in the test on SR it was 37.8 µM (inactive); in the test with RXF 393, > 100 µM (inactive); with NCI-H522 it was > 100 µM (inactive). In addition, the GI50 in the test on HCT-116, with RPMI-8226, with 786-0, in the test on OVCAR-8, in the test on K562 and in the test on Malme-3M was > 100 µM (inactive) each time. Besides, the GI50 with HCT-15 is greater than 100 µM; in the test with MDA-MB-435, > 100 µM (inactive); in the test with MDA-N, > 100 µM (inactive); in the test with SW-620, > 100 µM (inactive); in the test on SN12C, > 100 µM (inactive); in the test on SF-295 it was > 100 µM (inactive).

As to `C=C1C(=O)OC2C1CCC(C)C1(O)C=CC(=O)C21C` (stereo not given), the GI50 in the test with TK-10 is 6.75 µM (inactive); in the test on T47D, 6.31 µM (inactive); in the test on NCI/ADR-RES, 3.95 µM (inactive); in the test with SR, 3.13 µM (inactive); in the test with OVCAR-3, 4.9 µM (inactive); in the test on RXF 393, 9.31 µM (inactive). Moreover, the GI50 in the test with HCT-116 was 5.04 µM (inactive); with RPMI-8226, 5.43 µM (inactive); with 786-0 it was 6.11 µM (inactive); with HL-60 it was 2.39 µM (inactive); in the test on OVCAR-8 it was 3.5 µM (inactive); in the test with K562, 4.45 µM (inactive). Also, the GI50 in the test with Malme-3M is > 10 µM (inactive); in the test on HCT-15, 4.5 µM; in the test with MDA-MB-435, > 10 µM (inactive); in the test on MDA-N, 6.85 µM (inactive); with SW-620, 3.44 µM (inactive); with SN12C it was > 10 µM (inactive). The GI50 with SF-295 is > 10 µM (inactive).

For the compound `COC(=O)[C@@H]1CCCN1CCN1CCC[C@H]1C(=O)OC`, the GI50 is > 100 µM (inactive) in the test on TK-10; > 100 µM (inactive) in the test on T47D; > 100 µM (inactive) in the test with NCI/ADR-RES; 31.8 µM (inactive) in the test with SR; > 100 µM (inactive) in the test on OVCAR-3; > 100 µM (inactive) in the test with RXF 393. Also, the GI50 in the test on NCI-H522, in the test on HCT-116, with RPMI-8226, in the test with 786-0, in the test with OVCAR-8 and in the test with K562 was > 100 µM (inactive) each time. The GI50 in the test on Malme-3M is > 100 µM (inactive); with HCT-15, greater than 100 µM; in the test with MDA-MB-435, > 100 µM (inactive); in the test with MDA-N, > 100 µM (inactive); in the test on SW-620 it was > 100 µM (inactive); with SN12C, > 100 µM (inactive). Also, the GI50 in the test with SF-295 was > 100 µM (inactive).

Turning to `COc1cccc2c1CCc1cc3c(N)nc(N)nc3nc1-2`, the GI50 in the test with TK-10 is 10.9 µM (inactive); in the test with T47D, 7.94 µM (inactive); with NCI/ADR-RES, 16.7 µM (inactive); in the test on SR it was 3.41 µM (inactive); with OVCAR-3, 7.26 µM (inactive); with RXF 393 it was 3.02 µM (inactive). Further, the GI50 in the test with NCI-H522 was 5.18 µM (inactive); in the test on HCT-116 it was 2.55 µM (inactive); with RPMI-8226, 2.12 µM (inactive); in the test with 786-0 it was 2.08 µM (inactive); in the test on OVCAR-8, 3.31 µM (inactive); in the test with K562 it was 2.23 µM (inactive). Further, the GI50 with Malme-3M is 5.14 µM (inactive); in the test on HCT-15, 5.21 µM; in the test with MDA-MB-435, 5.3 µM (inactive); with MDA-N, 2.94 µM (inactive); in the test with SW-620, 3.65 µM (inactive); in the test with SN12C, 6.43 µM (inactive). The GI50 in the test on SF-295 is 4.42 µM (inactive).

Regarding `Cc1cc(NC[C@H](O)[C@H](O)[C@H](O)CO)c(Sc2cc(=O)[nH]c(=O)[nH]2)cc1C`, the GI50 with TK-10, with T47D, in the test on NCI/ADR-RES, with SR, with OVCAR-3 and in the test on RXF 393 was > 62.5 µM (inactive) in each case. In addition, the GI50 in the test on NCI-H522, with HCT-116, with RPMI-8226, with 786-0, in the test on OVCAR-8 and in the test on K562 was > 62.5 µM (inactive) in each case. Further, the GI50 was > 62.5 µM (inactive) in the test on Malme-3M; greater than 62.5 µM in the test with HCT-15; > 62.5 µM (inactive) with MDA-MB-435; > 62.5 µM (inactive) in the test on MDA-N; > 62.5 µM (inactive) in the test with SW-620; > 62.5 µM (inactive) in the test on SN12C. Besides, the GI50 in the test on SF-295 was > 62.5 µM (inactive).

Take `CC(=O)c1c(N=[N+]=[N-])c2cccc3c2n(c1=O)CCC3`: the GI50 with TK-10 is 25.4 µM (inactive); with T47D, 22.6 µM (inactive); with NCI/ADR-RES, 19.2 µM (inactive); with SR it was 36.7 µM (inactive); in the test with OVCAR-3, 4.21 µM (inactive); with RXF 393 it was 20.5 µM (inactive). Besides, the GI50 in the test with NCI-H522 was 13.9 µM (inactive); in the test on HCT-116, 15.6 µM (inactive); in the test with RPMI-8226, 25.9 µM (inactive); with 786-0, 14.7 µM (inactive); in the test on OVCAR-8, 0.957 µM (active); in the test with K562 it was 21.8 µM (inactive). The GI50 with Malme-3M is 13.2 µM (inactive); with HCT-15 it was 19.7 µM; in the test with MDA-MB-435, 19.1 µM (inactive); in the test on MDA-N, 18.5 µM (inactive); in the test with SW-620, 16 µM (inactive); with SN12C, 22.1 µM (inactive). Moreover, the GI50 with SF-295 is 24.7 µM (inactive).

On to `COc1ccc(C(OCC2OC(n3ccc(NC(=O)c4ccccc4)nc3=O)CC2OP2(=S)SCCS2)(c2ccccc2)c2ccc(OC)cc2)cc1` (stereo not given), for which the GI50 in the test with TK-10 is > 100 µM (inactive); in the test with T47D, 36.3 µM (inactive); with NCI/ADR-RES it was > 10 µM (inactive); in the test on SR, 48.1 µM (inactive); with OVCAR-3, 22.6 µM (inactive); with RXF 393, 33.2 µM (inactive). In addition, the GI50 was 22.1 µM (inactive) with NCI-H522; 32.9 µM (inactive) in the test with HCT-116; > 100 µM (inactive) in the test with RPMI-8226; 24.4 µM (inactive) in the test on 786-0; 27.2 µM (inactive) in the test on OVCAR-8; > 100 µM (inactive) with K562. The GI50 with Malme-3M is 25.4 µM (inactive); in the test on HCT-15, 33.5 µM; in the test on MDA-MB-435 it was 30.1 µM (inactive); with MDA-N, > 10 µM (inactive); in the test with SW-620, 18.4 µM (inactive); in the test on SN12C it was 21.1 µM (inactive). In addition, the GI50 with SF-295 is 30.7 µM (inactive).

Regarding `Cc1coc2c1CC1OC1(C)CCC1OC1(C)C2` (stereo not given), the GI50 in the test with TK-10, in the test on T47D, with NCI/ADR-RES, in the test on SR, in the test on OVCAR-3 and in the test on NCI-H522 was > 100 µM (inactive) each time. Also, the GI50 with HCT-116, in the test on RPMI-8226, in the test with 786-0, in the test with HL-60, with OVCAR-8 and in the test with K562 was > 100 µM (inactive) each time. The GI50 in the test with HCT-15 was greater than 100 µM; in the test on MDA-MB-435 it was > 100 µM (inactive); with MDA-N, > 100 µM (inactive); in the test on SW-620, > 100 µM (inactive); in the test with SN12C, > 100 µM (inactive); in the test on SF-295, > 100 µM (inactive).

For `C[C@@]12C[C@@H](c3ccccc3O1)N1Cc3ccccc3CSC1=N2`, the GI50 was 57.7 µM (inactive) with TK-10; 72.9 µM (inactive) in the test with T47D; > 100 µM (inactive) with NCI/ADR-RES; > 100 µM (inactive) with SR; 35.4 µM (inactive) in the test on OVCAR-3; > 100 µM (inactive) in the test with RXF 393. Also, the GI50 is 49.7 µM (inactive) with NCI-H522; 49.7 µM (inactive) in the test on HCT-116; > 100 µM (inactive) with RPMI-8226; 38.8 µM (inactive) with 786-0; > 100 µM (inactive) in the test on OVCAR-8; 64.9 µM (inactive) with K562. Further, the GI50 in the test with Malme-3M was 79.8 µM (inactive); with HCT-15 it was 37.3 µM; with MDA-MB-435, > 100 µM (inactive); with MDA-N, 93.5 µM (inactive); in the test with SW-620 it was > 100 µM (inactive); in the test with SN12C, > 100 µM (inactive). Moreover, the GI50 with SF-295 was > 100 µM (inactive).

Regarding `CCOC(=O)C(Cc1ccc(N(CCCl)CCCl)cc1)NC(=O)C(Cc1ccccc1)NC(C)=O` (stereo not given), the GI50 in the test with T47D is 0.157 µM (active); in the test with NCI/ADR-RES, > 0.33 µM (active); with SR it was 0.153 µM (active); with OVCAR-3, 0.173 µM (active); in the test on RXF 393, 0.106 µM (active); with HCT-116, > 0.265 µM (active). Besides, the GI50 in the test with RPMI-8226 is 0.0655 µM (active); in the test with 786-0, 0.184 µM (active); in the test on HL-60, 0.0908 µM (active); in the test on OVCAR-8, > 0.322 µM (active); in the test with K562, > 0.279 µM (active); with Malme-3M, 0.0887 µM (active). In addition, the GI50 was greater than 0.378 µM in the test on HCT-15; 0.264 µM (active) in the test on MDA-MB-435; > 0.262 µM (active) in the test with MDA-N; 0.236 µM (active) with SW-620; 0.155 µM (active) in the test on SN12C; > 0.326 µM (active) in the test on SF-295.

Take `CCCCCCNC(=O)CCC(NC(=O)c1ccc(N(C)Cc2cnc3nc(N)nc(N)c3n2)cc1)C(=O)NCCCCCC` (stereo not given): the GI50 in the test on TK-10 is > 100 µM (inactive); in the test with T47D it was > 100 µM (inactive); in the test on NCI/ADR-RES, > 100 µM (inactive); in the test with SR it was > 100 µM (inactive); in the test on OVCAR-3, > 100 µM (inactive); with RXF 393, 39.4 µM (inactive). Also, the GI50 in the test on NCI-H522 is 63 µM (inactive); with HCT-116, > 100 µM (inactive); in the test with RPMI-8226, 37.8 µM (inactive); with 786-0, > 100 µM (inactive); with OVCAR-8, > 100 µM (inactive); with K562, 2.52 µM (inactive). Further, the GI50 was greater than 100 µM in the test on HCT-15; > 100 µM (inactive) with MDA-MB-435; 9.89 µM (inactive) with MDA-N; > 100 µM (inactive) in the test with SW-620; > 100 µM (inactive) with SN12C; 16.7 µM (inactive) in the test on SF-295.

For the origin of these results see ChEMBL document CHEMBL1201862, “PubChem BioAssay data set” (2004).
